Assay results from patent US8759356B2, “Compounds and methods for controlling fungi” (Dow AgroSciences, LLC., priority 2009, dated 2014).

Columns and labels:
[1] = system: Septoria tritici (SEPTTR); assay: One day protectant test against Septoria blotch of wheat; format: in vivo; settings: wheat 'Yuma' seedlings, inoculated the day after treatment
Protocol: (§1) It will be understood by those in the art that the efficacy of the compounds against the foregoing fungi establishes the general utility of the compounds as fungicides. The activity of the compounds as effective fungicides was determined by applying the compounds to plants and observing control of fungal disease. The compounds were formulated at rates of 50 ppm and 200 ppm in 10 vol. % acetone plus 90 vol. % Triton X water (deionized water 99.99 wt %+0.01 wt % Triton X100), giving a “formulated test compound.” Formulated test compounds were applied to plants using a turntable sprayer fitted with two opposing air atomization nozzles which delivered approximately 1500 L/ha of spray volume.
(§2) Again referring to Table 1, tests were carried out to determine a given exemplary compound's ability to prevent or at least limit a fungal infection as follows. All plants in the study were inoculated with spores of the fungus in this case either PUCCRT or SEPTTR) the day after treatment with the putative fungicide. Next, the plants were incubated in an environment conducive to disease development. Disease severity was evaluated 7 to 25 days later, depending on the speed of disease development. The following experiments were performed in the laboratory to determine the fungicidal efficacy of the compounds of the invention.
Measuring the Preventative Effect of Various Compounds Against Septoria Blotch of Wheat (Causal Agent Bayer Code SEPTTR).
(§3) Each pot contained 3-10 seedlings. These plants were sprayed until wet with the formulated test compound. On the following day, the leaves were inoculated with an aqueous spore suspension of Septoria tritici and the plants were kept in high humidity (one day in a dark dew chamber followed by three days in a lighted dew chamber) to permit the spores to germinate and to infect the leaf. The plants were then transferred to a greenhouse until disease developed on untreated control plants. These tests were carried out using two different levels of the compound, 50 ppm and 200 ppm, see Table 1.
(§4) Disease control was determined by visually estimating the percent disease severity in treated and untreated pots 7 to 24 days after inoculation, depending on speed of disease development. Evaluations were typically made 7 or 8 days after inoculation for PUCCRT and 18 to 22 days after inoculation for SEPTTR. Percent disease control (% DC) was calculated by: % DC=(1−% Disease severity treated/% disease severity untreated)*100.

[2] = system: Puccinia recondita tritici (PUCCRT); assay: One day protectant test against leaf rust of wheat; format: in vivo; settings: wheat 'Yuma' seedlings, inoculated the day after treatment
Protocol: as §1, §2
Measuring the Protective Effect of Various Compounds Against Leaf Rust of Wheat (Causal Agent Bayer Code PUCCRT).
as §3, with “3-8” for “3-10”, “compounds.” for “compound.”, “Puccinia recondita” for “Septoria”, “overnight” for “(one day in a dark dew chamber followed by three days in a lighted dew chamber)”
as §4

[3] = system: Septoria tritici (SEPTTR); assay: Three day curative test against Septoria blotch of wheat; format: in vivo; settings: wheat 'Yuma' seedlings, treated three days after inoculation
Protocol: as §1
Measuring the Curative Effect of Various Compounds Against Septoria Blotch of Wheat (Causal Agent Bayer Code SEPTTR).
as §3, with “plants” for “plants were sprayed until wet with the formulated test compound. On the following day, the leaves”, “two” for “three”, “then removed form the dew chamber and allowed to dry. After drying, the inoculated plants were sprayed until wet with the formulated test compound. On the following day, the plants were” for “then”
as §4

Row | SMILES | Percent Disease Control, One Day Protectant, SEPTTR ([1]; 50 ppm spray) [%] | Percent Disease Control, One Day Protectant, SEPTTR ([1]; 200 ppm spray) [%] | Percent Disease Control, One Day Protectant, PUCCRT ([2]; 50 ppm spray) [%] | Percent Disease Control, One Day Protectant, PUCCRT ([2]; 200 ppm spray) [%] | Percent Disease Control, Three Day Curative, SEPTTR ([3]; 50 ppm spray) [%] | Percent Disease Control, Three Day Curative, SEPTTR ([3]; 200 ppm spray) [%] | melting point [°C]
1 | Cc1ccc(-c2ncc(Cl)c(NC3CC3)n2)cc1 [compound 6] | 65 | 95 | 97 | 99 | 0 | 27 | –
2 | Fc1cc(Cl)ccc1-c1ncc(Cl)c(NC2CC2)n1 [compound 4] | 38 | 86 | 50 | 99 | 0 | 18 | –
3 | Clc1cnc(-c2ccccc2)nc1NC1CC1 [compound 5] | 38 | 90 | 99 | 99 | 0 | 0 | –
4 | Clc1ccc(-c2nc(NC3CC3)ncc2Cl)cc1 [compound 7] | 91 | 61 | 53 | 0 | 50 | 50 | –
5 | Clc1ccc(-c2ncc(Cl)c(NC3CC3)n2)cc1 [Example 1] | 90 | 97 | 93 | 97 | 0 | 0 | 103 to 105
6 | Clc1ccc(-c2ncc(Cl)c(NC3CC3)n2)cc1Cl [compound 2] | 0 | 35 | 0 | 0 | 62 | 72 | –
